From article PMC8286840, “Identifying SARS-CoV-2 antiviral compounds by screening for small molecule inhibitors of Nsp3 papain-like protease” (Biochemical Journal, 2021)
Where a name gives a salt, the structure may show the parent alone. Read-outs that look alike come from different tables or passages of the source.

Legend:
[1] = molecular target: T1, SARS-CoV-2 PLpro (nsp3 1564–1878) (Severe acute respiratory syndrome coronavirus 2, UniProt P0DTD1); assay: biochemical; design: FRET-quenched peptide (Pro3) cleavage by PLpro, 10 min pre-incubation, slope over 20 min, normalised to no-compound control; conditions: low concentration screen, read-out: % of control remaining
[2] = molecular target: T1, SARS-CoV-2 PLpro (nsp3 1564–1878); assay: biochemical; design: FRET-quenched peptide (Pro3) cleavage by PLpro, 10 min pre-incubation, slope over 20 min, normalised to no-compound control; conditions: high concentration screen, read-out: % of control remaining

NNC(=O)c1ccncc1 [Isoniazid]
remaining activity at 1.25 µM ([1]; Well no.=1744): 101% | remaining activity at 3.75 µM ([2]; Well no.=1744): 103%

O=C(O)C1CCNCC1 [Isonipecotic acid]
remaining activity at 1.25 µM ([1]; Well no.=1067): 92.8% | remaining activity at 3.75 µM ([2]; Well no.=1067): 96.7%

C=C[C@@]1(C)CC[C@H]2C(=CC[C@@H]3[C@]2(C)CCC[C@@]3(C)C(=O)O)C1 [Isopimaric Acid]
remaining activity at 1.25 µM ([1]; Well no.=5672): 94.1% | remaining activity at 3.75 µM ([2]; Well no.=5672): 93.1%

CC(C)NCC(O)c1ccc(O)c(O)c1 (stereo not shown) [Isoprenaline (hydrochloride)]
remaining activity at 1.25 µM ([1]; Well no.=6761): 99.4% | remaining activity at 3.75 µM ([2]; Well no.=6761): 101%

COc1cc(-c2oc3cc(O)cc(O)c3c(=O)c2O)ccc1O [Isorhamnetine]
remaining activity at 1.25 µM ([1]; Well no.=3150): 99.4% | remaining activity at 3.75 µM ([2]; Well no.=3150): 99.7%

C[C@@H]1O[C@@H](OC[C@H]2O[C@@H](Oc3cc(O)c4c(=O)cc(-c5ccc(O)cc5)oc4c3)[C@H](O)[C@@H](O)[C@@H]2O)[C@H](O)[C@H](O)[C@H]1O [Isorhoifolin]
remaining activity at 1.25 µM ([1]; Well no.=3297): 99.4% | remaining activity at 3.75 µM ([2]; Well no.=3297): 104%

COc1ccc2cc1Oc1ccc(cc1)C[C@H]1c3cc(c(OC)cc3CCN1C)Oc1c(OC)c(OC)cc3c1[C@@H](C2)N(C)CC3 [Isotetrandrine]
remaining activity at 1.25 µM ([1]; Well no.=3365): 100% | remaining activity at 3.75 µM ([2]; Well no.=3365): 98.1%

CCC(NC(C)C)C(O)c1ccc(O)c(O)c1 (stereo not shown) [Isotharine mesylate]
remaining activity at 1.25 µM ([1]; Well no.=915): 104% | remaining activity at 3.75 µM ([2]; Well no.=915): 104%

CC1=C(/C=C/C(C)=C/C=C/C(C)=C\C(=O)O)C(C)(C)CCC1 [Isotretinoin]
remaining activity at 1.25 µM ([1]; Well no.=6303): 108% | remaining activity at 3.75 µM ([2]; Well no.=6303): 108%

CC(C)CC(N)=O [Isovaleramide]
remaining activity at 1.25 µM ([1]; Well no.=8346): 89.1% | remaining activity at 3.75 µM ([2]; Well no.=8346): 81.6%

O=c1cc(-c2ccc(O)cc2)oc2cc(O)c([C@@H]3O[C@H](CO)[C@@H](O)[C@H](O)[C@H]3O)c(O)c12 [Isovitexin]
remaining activity at 1.25 µM ([1]; Well no.=3301): 99.2% | remaining activity at 3.75 µM ([2]; Well no.=3301): 98.6%

Nc1nc2[nH]c(=O)cnc2c(=O)[nH]1 [Isoxanthopterin]
remaining activity at 1.25 µM ([1]; Well no.=1109): 96.8% | remaining activity at 3.75 µM ([2]; Well no.=1109): 100%

Cc1ccc(C(=O)N(CCCN)[C@@H](c2nc3cc(Cl)ccc3c(=O)n2Cc2ccccc2)C(C)C)cc1 [Ispinesib (SB-715992)]
remaining activity at 1.25 µM ([1]; Well no.=5243): 94.6% | remaining activity at 3.75 µM ([2]; Well no.=5243): 92.3%

CCn1c(=O)c2c(nc(/C=C/c3ccc(OC)c(OC)c3)n2C)n(CC)c1=O [Istradefylline (KW-6002)]
remaining activity at 1.25 µM ([1]; Well no.=5121): 106% | remaining activity at 3.75 µM ([2]; Well no.=5121): 110%

CCn1c(=O)c2c(nc(/C=C/c3ccc(OC)c(OC)c3)n2C)n(CC)c1=O [Istradefylline]
remaining activity at 1.25 µM ([1]; Well no.=6903): 98.1% | remaining activity at 1.25 µM ([1]; Well no.=8461): 109% | remaining activity at 3.75 µM ([2]; Well no.=6903): 99.6% | remaining activity at 3.75 µM ([2]; Well no.=8461): 101%

COc1ccc(C(=O)NCc2ccc(OCCN(C)C)cc2)cc1OC [Itopride]
remaining activity at 1.25 µM ([1]; Well no.=2226): 87.9% | remaining activity at 3.75 µM ([2]; Well no.=2226): 88.2%

COc1cc2c(cc1OC)CC(=O)N(CCCN(C)C[C@H]1Cc3cc(OC)c(OC)cc31)CC2 [Ivabradine (hydrochloride)]
remaining activity at 1.25 µM ([1]; Well no.=7625): 99.3% | remaining activity at 3.75 µM ([2]; Well no.=7625): 94.7%

COc1cc2c(cc1OC)CC(=O)N(CCCN(C)C[C@H]1Cc3cc(OC)c(OC)cc31)CC2 [Ivabradine hydrochloride]
remaining activity at 1.25 µM ([1]; Well no.=5419): 104% | remaining activity at 3.75 µM ([2]; Well no.=5419): 106%

CC(C)(C)c1cc(C(C)(C)C)c(NC(=O)c2c[nH]c3ccccc3c2=O)cc1O [Ivacaftor (VX-770)]
remaining activity at 1.25 µM ([1]; Well no.=5055): 105% | remaining activity at 3.75 µM ([2]; Well no.=5055): 102%

N#Cc1ccnc(N2C(=O)CC[C@H]2C(=O)N(c2cncc(F)c2)[C@H](C(=O)NC2CC(F)(F)C2)c2ccccc2Cl)c1 [Ivosidenib (AG-120)]
remaining activity at 1.25 µM ([1]; Well no.=8630): 95.1% | remaining activity at 3.75 µM ([2]; Well no.=8630): 92.7%

C/C(=C\c1csc(C)n1)[C@@H]1C[C@@H]2O[C@]2(C)CCC[C@H](C)[C@H](O)[C@@H](C)C(=O)C(C)(C)[C@@H](O)CC(=O)N1 [Ixabepilone]
remaining activity at 1.25 µM ([1]; Well no.=6934): 108% | remaining activity at 3.75 µM ([2]; Well no.=6934): 107%

CC(C)N(CCC(=O)c1ccc2ccccc2c1)Cc1ccccc1 [JAK3 Inhibitor IV]
remaining activity at 1.25 µM ([1]; Well no.=2459): 94% | remaining activity at 3.75 µM ([2]; Well no.=2459): 93.9%
